Results published in patent US20240383852A1, “ANTI-VIRAL COMPOUNDS” (INFEX Therapeutics Limited, priority 2021, published 2024).
Where a name gives a salt, the structure may show the parent alone. Read-outs that look alike come from different tables or passages of the source.

Legend:
SARS-CoV-2 PLpro = target: T1, SARS-CoV-2 PLpro (Severe acute respiratory syndrome coronavirus 2, UniProt P0DTD1); assay: biochemical
T1 construct: containing 60 nM papain-like protease

[1] = system: human Hep G2 cells (ATCC HB-8065); assay: Cytotoxicity in Hep G2 cells (CellTiter-Glo); assay type: cell-based
[2] = 60 nM papain-like protease, 50 μM Z-RLRGG-AMC, pH 7.5, 37° C., read-out: SARS-CoV-2 PLpro IC50
[3] = Hep G2 cells, 100 μM test article, 24-hour exposure

SMILES	IC50 (SARS-CoV-2 PLpro; [2]) [nM]	% Cell Viability [1, 3] [%]	IC50 (SARS-CoV-2 PLpro) [nM]	% Cell Viability ([1]; human, 24 h, 100 μM) [%]
C[C@@H]1CN(c2ccc(Cl)c(C(=O)N[C@H](C)c3cccc4ccccc34)c2)C[C@H](C)N1 [Example 133, 2-Chloro-5-[(3S,5R)-3,5-dimethylpiperazin-1-yl]-N-[(1R)-1-(1-naphthyl)ethyl]benzamide]	< 5000	0.1		
C[C@@H](NC(=O)c1cc(N2CCNCC2)ccc1Cl)c1cccc2ccccc12 [Example 134, 2-Chloro-N-[(1R)-1-(1-naphthyl)ethyl]-5-piperazin-1-yl-benzamide]	< 2000	0.8		
Cc1ccc(-c2ccnc(N3CCNCC3)c2)cc1C(=O)N[C@H](C)c1cccc2ccccc12 [Example 140, 2-Methyl-N-[(1R)-1-(1-naphthyl)ethyl]-5-(2-piperazin-1-yl-4-pyridyl)benzamide]	< 10000	0.8		
C[C@@H](NC(=O)c1cc(C2=CCN(C)CC2)ccc1Cl)c1cccc2ccccc12 [Example 144, 2-Chloro-5-(1-methyl-3,6-dihydro-2H-pyridin-4-yl)-N-[(1R)-1-(1-naphthyl)ethyl]benzamide]			< 10000	1.6
C[C@@H](NC(=O)c1cc(C2=CCNC2)ccc1Cl)c1cccc2ccccc12 [Example 146, 2-Chloro-5-(2,5-dihydro-1H-pyrrol-3-yl)-N-[(1R)-1-(1-naphthyl)ethyl]benzamide Hydrochloride Salt]	< 2000	0.2		
C[C@@H](NC(=O)c1cc(C2CCNC2)ccc1Cl)c1cccc2ccccc12 (stereo partly drawn) [Example 147, 2-chloro-N-[(1R)-1-(1-naphthyl)ethyl]-5-pyrrolidin-3-yl-benzamide]	< 5000	0.8		
Cc1ccc(C2=CCNCC2)cc1C(=O)N[C@H](C)c1cccc2ccccc12 [Example 154, 2-Methyl-N-[(1R)-1-(1-naphthyl)ethyl]-5-(1,2,3,6-tetrahydropyridin-4-yl)benzamide]			< 2000	2.1
Cc1ccc(C2=CCNCC2)c(C)c1C(=O)N[C@H](C)c1cccc2ccccc12 [Example 155, 2,6-Dimethyl-N-[(1R)-1-(1-naphthyl)ethyl]-3-(1,2,3,6-tetrahydropyridin-4-yl)benzamide]			< 2000	0.6
Cc1ccc(C2CCNCC2)cc1C(=O)N[C@H](C)c1cccc2ccccc12 [Example 156, 2-Methyl-N-[(1R)-1-(1-napthyl)ethyl]-5-(4-piperidyl)benzamide]	< 2000	0.6		
Cc1ccc(C2CCN(C)CC2)cc1C(=O)N[C@H](C)c1cccc2ccccc12 [Example 157, 2-Methyl-5-(1-methyl-4-piperidyl)-N-[(1R)-1-(1-naphthyl)ethyl]benzamide]	< 2000	1.5		
C[C@@H](NC(=O)c1cccc(N2CCNCC2)c1)c1cccc2ccccc12 [Example 158, N-[(1R)-1-(1-Naphthyl)ethyl]-3-piperazin-1-yl-benzamide Hydrochloride Salt]	< 5000	0.8		
CC(=O)N1CCN(c2cccc(C(=O)N[C@H](C)c3cccc4ccccc34)c2)CC1 [Example 159, 3-(4-Acetylpiperazin-1-yl)-N-[(1R)-1-(1-naphthyl)ethyl]benzamide]	> 100000	81.5		
COC(=O)CCN1CCN(c2cccc(C(=O)N[C@H](C)c3cccc4ccccc34)c2)CC1 [Example 160, Methyl 3-[4-[3-[[(1R)-1-(1-naphthyl)ethyl]carbamoyl]phenyl]piperazin-1-yl]propanoate]	< 100000	101.8		
C[C@@H](NC(=O)c1cccc(N2CCN(CCC(=O)O)CC2)c1)c1cccc2ccccc12 [Example 161, 3-[4-[3-[[(1R)-1-(1-Naphthyl)ethyl]carbamoyl]phenyl]piperazin-1-yl]propanoic Acid]	< 20000	97.9		
Cc1ccc(N2CCN(CCC(=O)O)CC2)cc1C(=O)N[C@H](C)c1cccc2ccccc12 [Example 162, 3-[4-[4-Methyl-3-[[(1R)-1-(1-naphthyl)ethyl]carbamoyl]phenyl]piperazin-1-yl]propanoic acid]	< 2000	104.9		
Cc1ccc(N2CCCN(CCC(=O)O)CC2)cc1C(=O)N[C@H](C)c1cccc2ccccc12 [Example 163, 3-[4-[4-Methyl-3-[[(1R)-1-(1-naphthyl)ethyl]carbamoyl]phenyl]-1,4-diazepan-1-yl]propanoic acid]	< 5000	122.4		
Cc1ccc(N2CCN(C)CC2)cc1C(=O)N[C@H](C)c1cccc(-c2ccc(N3CCN(CCC(=O)O)CC3)cc2)c1 [Example 165, 3-[4-[4-[3-[(1R)-1-[[2-Methyl-5-(4-methylpiperazin-1-yl)benzoyl]amino]ethyl]phenyl]phenyl]piperazin-1-yl]propanoic acid]	< 2000	132		

SMILES	IC50 (SARS-CoV-2 PLpro; [2]) [nM]	% Cell Viability [1, 3] [%]	IC50 (SARS-CoV-2 PLpro) [nM]	% Cell Viability ([1]; human, 24 h, 100 μM) [%]
Cc1ccc(N2CCN(C)CC2)cc1C(=O)N[C@H](C)c1cccc(N2CCN(CCC(=O)O)CC2)c1 [Example 166, 3-[4-[3-[(1R)-1-[[2-Methyl-5-(4-methylpiperazin-1-yl)benzoyl]amino]ethyl]phenyl]piper-azin-1-yl]propanoic acid]	< 10000	100.9		
Cc1ccc(N2CCN(C)CC2)cc1C(=O)N[C@H](C)c1cccc(-c2cccc(N3CCN(CCC(=O)O)CC3)c2)c1 [Example 167, 3-[4-[3-[3-[(1R)-1-[[2-Methyl-5-(4-methylpiperazin-1-yl)benzoyl]amino]ethyl]phenyl]phe-nyl]piperazin-1-yl]propanoic acid]	< 2000	110.4		
Cc1ccc(N2CC3(CN(CCC(=O)O)C3)C2)cc1C(=O)N[C@H](C)c1cccc2ccccc12 [Example 168, 3-[2-[4-Methyl-3-[[(1R)-1-(1-naphthyl)ethyl]carbamoyl]phenyl]-2,6-diazaspiro[3.3]heptan-6-yl]propanoic acid]	< 5000	111.2		
Cc1ccc(N2CCN(CCC(=O)O)CC2)cc1C(=O)N[C@H](C)c1cccc(-c2cccc(CO)c2)c1 [Example 170, 3-[4-[3-[[(1R)-1-[3-[3-(Hydroxymethyl)phenyl]phenyl]ethyl]carbamoyl]-4-methyl-phenyl]piperazin-1-yl]propanoic Acid]	< 5000	107.9		
Cc1ccc(N2CCN(CCCC(=O)O)CC2)cc1C(=O)N[C@H](C)c1cccc2ccccc12 [Example 172, 4-[4-[4-Methyl-3-[[(1R)-1-(1-naphthyl)ethyl]carbamoyl]phenyl]piperazin-1-yl]butanoic Acid]	< 2000	104.6		
Cc1ccc(N2CCCN(S(N)(=O)=O)CC2)cc1C(=O)N[C@H](C)c1cccc2ccccc12 [Example 178, 2-methyl-N-[(1R)-1-(1-naphthyl)ethyl]-5-(4-sulfamoyl-1,4-diazepan-1-yl)benzamide]	< 20000	77.2		
COc1ccc([C@@H](C)NC(=O)c2cc(N3CCN(C)CC3)ccc2C)cc1Br [Example 180, N-[(1R)-1-(3-Bromo-4-methoxy-phenyl)ethyl]-2-methyl-5-(4-methylpiperazin-1-yl)benzamide]	< 2000	93.4		
COc1ccc([C@@H](C)NC(=O)c2cc(N3C[C@H]4C[C@@H]3CN4C)ccc2C)cc1Br [Example 181, N-[(1R)-1-(3-Bromo-4-methoxy-phenyl)ethyl]-2-methyl-5-[(1R,4R)-5-methyl-2,5-diazabicyclo[2.2.1]heptan-2-yl]benzamide]	< 2000	18.9		
Cc1ccc(N2CCN(C)CC2)cc1C(=O)N[C@H](C)c1ccc2c(c1)OCCO2 [Example 182, N-[(1R)-1-(2,3-Dihydro-1,4-benzodioxin-6-yl)ethyl]-2-methyl-5-(4-methylpiperazin-1-yl)benzamide]	< 5000	104.8		
COc1cc([C@@H](C)NC(=O)c2cc(N3CCN(C)CC3)ccc2C)ccc1OCc1ccccc1 [Example 184, N-[(1R)-1-(4-benzyloxy-3-methoxy-phenyl)ethyl]-2-methyl-5-(4-methylpiperazin-1-yl)benzamide]	< 2000	51.3		
COc1ccc([C@@H](C)NC(=O)c2cc(N3CCN(C)CC3)ccc2C)cc1F [Example 185, N-[(1R)-1-(3-Fluoro-4-methoxy-phenyl)ethyl]-2-methyl-5-(4-methylpiperazin-1-yl)benzamide]	< 10000	5.6		
COc1cc(Br)cc([C@@H](C)NC(=O)c2cc(N3CCN(C)CC3)ccc2C)c1 [Example 186, N-[(1R)-1-(3-Bromo-5-methoxy-phenyl)ethyl]-2-methyl-5-(4-methylpiperazin-1-yl)benzamide]	< 2000	1.0		
Cc1ccc(N2CCN(C)CC2)cc1C(=O)N[C@H](C)c1ccc(F)c(Br)c1 [Example 187, N-[(1R)-1-(3-Bromo-4-fluoro-phenyl)ethyl]-2-methyl-5-(4-methylpiperazin-1-yl)benzamide]	< 2000	44.0		
COc1ccc([C@@H](C)NC(=O)c2cc(N3CCN(C)CC3)ccc2C)cc1Cl [Example 188, N-[(1R)-1-(3-Chloro-4-methoxy-phenyl)ethyl]-2-methyl-5-(4-methylpiperazin-1-yl)benzamide]	< 2000	84.9		
Cc1ccc(N2CCN(C)CC2)cc1C(=O)N[C@H](C)c1ccc(OC(F)(F)F)c(Br)c1 [Example 190, N-[(1R)-1-[3-Bromo-4-(trifluoromethoxy)phenyl]ethyl]-2-methyl-5-(4-methylpiperazin-1-yl)benzamide]	< 5000	0.9		
COc1ccc([C@@H](C)NC(=O)c2cc(N3CCN(C)CC3)ccc2C)c2ccccc12 [Example 192, N-[(1R)-1-(4-Methoxy-1-naphthyl)ethyl]-2-methyl-5-(4-methylpiperazin-1-yl)benzamide]	< 2000	6.3		
